Row | melting point [°C] | SMILES
1 | 145 to 147 | C/C=C1/[C@H](O)C[C@H]2[C@@H]3CC[C@H]4C[C@@H](O[Si](C)(C)C(C)(C)C)CC[C@]4(C)[C@H]3CC[C@]12C (stereo in doubt)
2 | 129 to 131 | CC(=O)O[C@H]1CC[C@]23C[C@]24CC[C@]2(C)[C@@H]([C@H](C)CCC5(C(C)C)CO5)CC[C@@]2(C)[C@@H]4CC[C@H]3C1(C)C (stereo partly shown)
3 | 156 to 158 | C=C[C@@H](C)[C@H]1[C@H](O)C[C@H]2[C@@H]3CC=C4C[C@@H](O[Si](C)(C)C(C)(C)C)CC[C@]4(C)[C@H]3CC[C@]12C
4 | 201 to 212 | CC(=O)O[C@H]1CC[C@]23C[C@]24CC[C@]2(C)[C@@H]([C@H](C)CCC(=O)O)CC[C@@]2(C)C4CCC3C1(C)C (stereo in doubt) [Compound I-4, 3-β-O-acetyl-25,26,27-Trinorcycloartan-24-oic acid]
5 | 119 to 121 | CC(=O)O[C@H]1CC[C@]23C[C@]24CC[C@]2(C)[C@@H]([C@H](C)CCC(=O)C(C)C)CC[C@@]2(C)C4CCC3C1(C)C (stereo partly drawn) [Compound I-3, 24-Oxocycloartanol-3-β-O-acetate]
6 | 128 to 130 | C/C=C1/CC[C@H]2[C@@H]3CC=C4C[C@@H](O[Si](C)(C)C(C)(C)C)CC[C@]4(C)[C@H]3CC[C@]12C [Compound I-6]
7 | 136 to 137 | C/C=C1/CC[C@H]2[C@@H]3CC[C@H]4C[C@@H](O[Si](C)(C)C(C)(C)C)CC[C@]4(C)[C@H]3CC[C@]12C (stereo in doubt)
8 | 290 to 292 | CC(C#N)[C@H]1[C@@H](O)CC2C3CC=C4C[C@@H](O[Si](C)(C)C(C)(C)C)CC[C@]4(C)C3CC[C@@]21C (stereo in doubt) [Compound I-10]
9 | 203 to 205 | CC(=O)O[C@H]1CC[C@]2(C)C3CC[C@]4(C)[C@@H]([C@H](C)CC(=O)O)CC[C@@]4(C)C3CCC2C1(C)C (stereo partly shown)
10 | 172 to 175 | C[C@H](C(O)CO)C1C(=O)C[C@H]2[C@@H]3CC=C4C[C@@H](O[Si](C)(C)C(C)(C)C)CC[C@]4(C)[C@H]3CC[C@]12C (stereo partly shown)
11 | 141 to 143 | CC(=O)O[C@H]1CC[C@]23C[C@]24CC[C@]2(C)[C@@H]([C@H](C)CCC5OC5(C)C)CC[C@@]2(C)[C@@H]4CC[C@H]3C1(C)C (stereo partly shown)
12 | 159 to 162 | CC(C)(C)[Si](C)(C)O[C@H]1CC[C@@]2(C)[C@@H](CC[C@@H]3[C@@H]2CC[C@]2(C)C(=O)CC[C@@H]32)C1
13 | 125 to 127 | COC(=O)C(=O)C[C@@H](C)[C@H]1CC[C@@]2(C)C3CCC4C(C)(C)[C@@H](OC(C)=O)CC[C@]4(C)C3CC[C@]12C (stereo partly shown)
14 | 124 to 126 | C[C@H](C#N)[C@H]1C(=O)C[C@H]2[C@@H]3CC=C4C[C@@H](O)CC[C@]4(C)[C@H]3CC[C@]12C
15 | 210 to 212 | C/C=C1/C(=O)C[C@H]2[C@@H]3CC[C@H]4C[C@@H](O[Si](C)(C)C(C)(C)C)CC[C@]4(C)[C@H]3CC[C@]12C (stereo in doubt)
16 | 112 to 113 | C/C=C1\C(=O)C[C@H]2[C@@H]3CC=C4C[C@@H](O)CC[C@]4(C)[C@H]3CC[C@]12C

Row | melting point [°C] | SMILES
17 | 132 to 134 | C=C[C@@H](C)[C@H]1C(=O)C[C@H]2[C@@H]3CC[C@H]4C[C@@H](O[Si](C)(C)C(C)(C)C)CC[C@]4(C)[C@H]3CC[C@]12C
18 | 112 to 114 | C=C[C@@H](C)[C@H]1C2(CC3C4CC=C5C[C@@H](O[Si](C)(C)C(C)(C)C)CC[C@]5(C)C4CC[C@@]31C)OCCO2 (stereo partly shown)
19 | 137 to 139 | C/C=C1/C(O)CC2C3CC=C4C[C@@H](O[Si](C)(C)C(C)(C)C)CC[C@]4(C)C3CC[C@]12C (stereo in doubt) [Compound I-7]
20 | 203 to 205 | CC(=O)O[C@H]1CC[C@]23C[C@]24CC[C@]2(C)[C@@H]([C@H](C)CC(=O)C(C#N)=P(c5ccccc5)(c5ccccc5)c5ccccc5)CC[C@@]2(C)C4CCC3C1(C)C (stereo in doubt) [Compound I-19]
21 | 124 to 126 | C/C=C1/C(=O)CC2C3CC=C4C[C@@H](O)CC[C@]4(C)C3CC[C@]12C (stereo partly shown)
22 | 103 to 104 | C[C@H](C1CO1)[C@H]1C(=O)C[C@H]2[C@@H]3CC=C4C[C@@H](O[Si](C)(C)C(C)(C)C)CC[C@]4(C)[C@H]3CC[C@]12C (stereo partly shown)
23 | 161 to 163 | C/C=C1/C(=O)C[C@H]2[C@@H]3CC=C4C[C@@H](O[Si](C)(C)C(C)(C)C)CC[C@]4(C)[C@H]3CC[C@]12C [Compound I-8]
24 | 133 to 135 | CC(=O)O[C@H]1CC[C@]23C[C@]24CC[C@]2(C)[C@@H]([C@H](C)CCC(=O)C(F)(F)F)CC[C@@]2(C)[C@@H]4CC[C@H]3C1(C)C
25 | 138 to 142 | C/C=C1\C(=O)C[C@H]2[C@@H]3CC=C4C[C@@H](O[Si](C)(C)C(C)(C)C)CC[C@]4(C)[C@H]3CC[C@]12C
26 | 120 to 122 | COC(=O)C(=O)C[C@@H](C)[C@H]1CC[C@@]2(C)C3CCC4C(C)(C)[C@@H](OC(C)=O)CC[C@@]45C[C@@]35CC[C@]12C (stereo in doubt) [Compound I-20]
27 | 168 to 170 | C/C=C1/CCC2C3CC=C4C[C@@H](O)CC[C@]4(C)C3CC[C@]12C (stereo partly shown)
28 | 151 to 154 | C/C=C1/C(O)CC2C3CC=C4C[C@@H](O)CC[C@]4(C)C3CC[C@]12C (stereo partly shown)
29 | 150 to 152 | CC(C)(C)[Si](C)(C)O[C@H]1CC[C@@]2(C)C(=CC[C@@H]3[C@@H]2CC[C@]2(C)C(=O)CC[C@@H]32)C1 [Compound I-13]
30 | 126 to 128 | CC(=O)O[C@H]1CC[C@]23C[C@]24CC[C@]2(C)[C@@H]([C@H](C)CCC(O)C(C)C)CC[C@@]2(C)[C@@H]4CC[C@H]3C1(C)C (stereo partly shown)
31 | 125 to 127 | C=C[C@@H](C)[C@H]1C(=O)CC2C3CC=C4C[C@@H](O)CC[C@]4(C)C3CC[C@@]21C (stereo partly shown)
32 | 145 to 147 | C=C[C@@H](C)[C@H]1CC[C@@]2(C)[C@@H]3CC[C@H]4C(C)(C)[C@@H](OC(C)=O)CC[C@@]45C[C@@]35CC[C@]12C

Row | SMILES | melting point [°C]
33 | CC(=O)O[C@H]1CC[C@]23C[C@]24CC[C@]2(C)[C@@H]([C@H](C)CC(=O)O)CC[C@@]2(C)C4CCC3C1(C)C (stereo in doubt) [Compound I-17, 3β-Acetoxy-9,19-Cyclo-4,4,14-trimethyl-24-norchol-23-oic acid] | 222 to 224
34 | CC(=O)O[C@H]1CC[C@]23C[C@]24CC[C@]2(C)[C@@H]([C@H](C)CC(=O)C(F)(F)F)CC[C@@]2(C)C4CCC3C1(C)C (stereo in doubt) [Compound I-18, 3β-Acetoxy-9,19-Cyclo-4,4,14-trimethyl-23-oxo-24-trifluorocholane] | 170 to 173

Source: patent US20120283217A1, “MODULATORS OF AMYLOID-BETA PRODUCTION” (SATORI PHARMACEUTICALS, INC., priority 2006, published 2012)
